Measurements published in patent US5693677A, “Ceramide 3 derivatives based on monounsaturated fatty acids” (Gist-brocades N.V., priority 1994, dated 1997).
≈ marks a conversion by molar mass, not a printed value.

How the values were obtained:
[1] = Solubility of ceramide 3 derivatives in emollients (visual inspection, maximum concentration before cloudiness); type: physicochemical; conditions: for solubility: organic solvent or mixture
Experimental: The compound produced in Example 1, N-oleoyl phytosphingosine (also called Ceramide IIIB) was tested by solubilisation in isocetyl alcohol (Eutanol™ G16, Henkel), isostearic acid (Emersol, Henkel), triglycerides (Myritolo 318, J. Dekker), wallnut oil (J. Dekker) and avocado oil (J. Dekker).
Increasing amounts of the compound were added to the solvent and stirred under nitrogen for 30 minutes at 45° C. After cooling to room temperature (22° C.±2° C.) the solutions were kept in the dark. After 1, 24 and 48 hours the solutions were visually inspected. The maximum concentration was determined before the solution turned cloudy, indicating the presence of insoluble crystals.
The solubility of a saturated ceramide 3 derivative, N-stearoylphytosphingosine, was also determined.

[2] = Thermo-gravimetric analysis (TG/DTA) of ceramides, oxidation stability; type: physicochemical; conditions: 5° C./min; for Stability in thermo-gravimetric analysis: 25° to 180° C., oxygen (100 ml/min), in words
Experimental: Thermo-gravimetry (TG) and Differential Thermo-gravimetric Analysis (DTA) were carried out using the SSC 5200 system of Seiko, provided with the TG/DTA furnaces. Standard procedures were used to obtain the desired data.
Atmosphere oxygen (100 ml/min)
Reference empty, open Pt pan
Sample size ± 5 mg powder
Sample container open Pt pan

SDS-damaged skin [3] = assay: Effects of ceramide IIIB formulations on SDS-damaged skin, skin humidity (corneometry); type: in vivo, human (female volunteers); conditions: skin pretreated with a surfactant (SDS), topical
Experimental: The corneometer CM 820 PC (Courage and Khazaka, Cologne, Germany) registers the electrical capacitance of the skin surface, which is a measure of the degree of moisture on the skin's surface. The capacitance is expressed digitally in arbitrary units (a.u.). Three measurements were performed on each test area and the mean was used to define hydration state of the stratum corneum.
(§1) after damaging the skin with SDS
(§2) 1 hour after last application on days 3, 7, 14
(§3) Five female volunteers at the age of 22-43 years with healthy skin were included in the test.
(§4) Measurements were carried out at a temperature of 22°±1° C. and a relative humidity of 60±10%. Subjects were accustomed to ambient conditions for 20 min prior to any measurement. The test was carried out on the volar forearms. The skin of the forearms was treated with a 5% aqueous solution of sodium lauryl sulphate (SDS) and an occlusive dressing applied. The dressing was removed 2 h later, and the regions gently washed with water and air-dried. After 30 min the measurements were done. Then the three test products were applied, one area remained untreated. The dose of application was about 2 mg/cm^2. In the following 14 days a home application in the morning and evening took place.
Measurements were evaluated during the treatment period on day 3, 7 and 14 one hour after the last daily application. […]

SDS-damaged skin [4] = assay: Effects of ceramide IIIB formulations on SDS-damaged skin, trans-epidermal water loss (TEWL); type: in vivo, human (female volunteers); conditions: 0.2 and 0.5% Ceramide IIIB
Experimental: (§5) Measurements of trans-epidermal water loss (TEWL) were performed with the Tewameter (Courage & Khazaka, Cologne, Germany). The Tewameter is a device for measurement of water evaporation on skin surfaces based on the diffusion principle discovered by A. Fick in 1885.
as §1, §2, §3, §4
Measurements were evaluated during the treatment period on day 3, 7 and 14 one hour after the last daily application. Use of other cosmetic products was restricted on the test areas throughout the whole study.

skin (SDS-challenge) = assay: Protective effects of ceramide IIIB formulations against SDS-challenge, TEWL; type: in vivo, human (female volunteers); conditions: pretreatment, in words (TEWL and skin colour)
Experimental: as §5
before start of treatment;
two hours after last application on day 7;
2 hours after irritation with SDS (2 h under occlusion).
Two panels of each five female volunteers at the age of 19-55 years with healthy skin were included in the test.
Measurements were carried out at a temperature of 22°±1° C. and a relative humidity of 60±10%. Subjects were accustomed to ambient conditions for 20 min prior to any measurement. The test was carried out on the volar forearms. Initially untreated skin was measured in all four areas to find baseline values. Then the three test products were applied, one area remained untreated. The dose of application was about 2 mg/cm^2. In the following 7 days a home application in the morning and evening took place. Measurements were evaluated during the treatment period on day 7 two hours after the last daily application. […]
The results of TEWL and skin colour measurements are presented in respectively FIGS. 5 and 6. Values are expressed as (Valueday7 -Valueday0)/Valueday0 ×100%.

Row | solubility ([1]; avocado oil) [µg/mL] | solubility ([1]; emersol (isostearic acid)) [µg/mL] | solubility ([1]; eutanol g16 (isocetyl alcohol)) [µg/mL] | solubility ([1]; myritol 318 (triglycerides)) [µg/mL] | solubility ([1]; wallnut oil) [µg/mL] | Temperature at which weight increase (oxidation) followed by decomposition starts ([2]; oxygen) | SMILES | Solubility compared with saturated analogue ([1]; emollients, in words) | Stability in thermo-gravimetric analysis [2] | Recovery of diminished water-retaining properties of skin (SDS-damaged skin [3]) | TEWL dose-response (SDS-damaged skin [4]) | Protection from SDS-induced skin damage (skin (SDS-challenge))
1 | < 200 | 8000 (≈ 13700 µM) | 12000 (≈ 20600 µM) | 800 (≈ 1370 µM) | 200 (≈ 344 µM) | – | CCCCCCCC/C=C\CCCCCCCC(=O)N[C@@H](CO)[C@H](O)[C@H](O)CCCCCCCCCCCCCC [Ceramide IIIB, N-oleoylphytosphingosine] | solubilizes much better than its saturated analogue | behaviour similar to ceramide 3, although showing a steadily increasing baseline, probably due to hydration. However, no sudden increase in weight followed by decomposition is observed | high capacity for recovering diminished water-retaining properties of the skin | a clear dose-response effect | protects the skin from SDS-induced damage
2 | 50 (≈ 85.6 µM) | 600 (≈ 1030 µM) | 1600 (≈ 2740 µM) | 50 (≈ 85.6 µM) | 50 (≈ 85.6 µM) | – | CCCCCCCCCCCCCCCCCC(=O)N[C@@H](CO)[C@H](O)[C@H](O)CCCCCCCCCCCCCC [Ceramide III, N-stearoylphytosphingosine, reference compound] | – | most stable compound as is illustrated by the absence of change of weight | – | – | –
3 | – | – | – | – | – | ca. 80 °C | CCCCC/C=C\C/C=C\CCCCCCCC(=O)N[C@@H](CO)[C@H](O)[C@H](O)CCCCCCCCCCCCCC [sample IIIA, N-linoleoylphytosphingosine] | – | increase in weight (oxidation) followed by decomposition | – | – | –
